Among the test systems are SARS2 PL^pro Y264H; SARS2 PL^pro P248L; SARS2 PL^pro N267K; SARS2 PL^pro Y268H; SARS2 PL^pro Y268C; SARS2 PL^pro N267D; SARS2 PL^pro Q269R; SARS2 PL^pro L162F.
Holding throughout (format): cell-based, SARS-CoV-2

For GRL0617, the decrease in potency in the test with SARS2 PL^pro Y264H, with SARS2 PL^pro P248L, with SARS2 PL^pro Y268H and in the test with SARS2 PL^pro Y268C was > 10 fold throughout. Moreover, the “resistance phenotype in dose response curves” value in the test with SARS2 PL^pro Y264H, in the test on SARS2 PL^pro P248L and in the test on SARS2 PL^pro Y268C was “near-complete resistance” each time. Moreover, the “impact of mutation on GRL0617 potency” value in the test on SARS2 PL^pro N267K, in the test with SARS2 PL^pro N267D and with SARS2 PL^pro Q269R was “little impact” throughout. In the test with SARS2 PL^pro L162F, the “increase in IC50” value was ~8 fold.

The record behind these values is paper PMC13499021, “Cellular Assays for Dynamic Quantification of Deubiquitinase Activity and Inhibition” (Journal of molecular biology, 2023).
